Measured values as given in patent US7419969B2 (Bristol-Myers Squibb Company, priority 2004, dated 2008).

Biological target: T1, HIV-integrase (Human immunodeficiency virus type 1 group M subtype B, UniProt P04585)
T1 construct: Recombinant integrase (0.26 ng) was incubated with the beads
Assay: in-vitro activity against HIV-integrase (HIV Integrase Inhibition, SPA bead assay)
Assay type: biochemical
Details: recombinant integrase, activity class
Method: To evaluate in-vitro activity against HIV-integrase, 5 pmole of biotin labeled substrate DNA was bound to 100 μg of Streptavidin coated PVT SPA beads (Amersham Pharmacia Biotech). Recombinant integrase (0.26 ng) was incubated with the beads for 90 min at 37° C. Unbound enzyme was removed by washing the complex followed by addition of inhibitors and […] of P33 labeled target DNA. The reaction was stopped by adding EDTA to a final concentration of 10 mM. Samples were counted in TopCountNXT (Packard) and the CPM was used as a measure of integration. The reaction condition was as described in Engelman, A. and Craigie, R. J. Vitrol. 1996, 69, 5908. The sequences of substrate and target DNA were described in Nucleic Acid Research 1994, 22, 1121.

SMILES	IC50 (Table 1a) [nM]	IC50 (Table 1) [nM]
O=C(NCc1ccc(F)cc1-n1cncn1)c1nc2n(c(=O)c1O)CCOC21COC1 [Example 110, Spiro[oxetane-3,9′(4′H)-pyrimido[2,1-c][1,4]oxazine]-2′-carboxamide, N-[[4-fluoro-2-(1H-1,2,4-triazol-1-yl)phenyl]methyl]-6′,7′-dihydro-3′-hydroxy-4′-oxo-]	1 to 10	
O=C(NCc1ccc(F)cc1-n1cncn1)c1nc2n(c(=O)c1O)CCCC21CCC1 [Example 78, N-[[4-fluoro-2-(1H-1,2,4-triazol-1-yl)phenyl]methyl]-7′,8′-dihydro-3′-hydroxy-4′-oxo-spiro[cyclobutane-1,9′(6^1′H)-[4H]pyrido[1,2-α]pyrimidine]-2′-carboxamide]		1 to 10
O=C(NCc1ccccc1N1CCCCS1(=O)=O)c1nc2n(c(=O)c1O)CCOC21CCC1 [Example 56, N-[[2-(tetrahydro-1,1-dioxido-2H-1,2-thiazin-2-yl)phenyl]methyl]-6′,7′-dihydro-3′-hydroxy-4′-oxo-spiro[cyclobutane-1,9′(4′H)-pyrimido[2,1-c][1,4]oxazine]-2′-carboxamide]		10 to 100
O=C(NCc1ccc(F)cc1N1CCCCS1(=O)=O)c1nc2n(c(=O)c1O)CCOC21CCC1 [Example 55, N-[[4-fluoro-2-(tetrahydro-1,1-dioxido-2H-1,2-thiazin-2-yl)phenyl]methyl]-6′,7′-dihydro-3′-hydroxy-4′-oxo-spiro[cyclobutane-1,9′(4′H)-pyrimido[2,1-c][1,4]oxazine]-2′-carboxamide]		1 to 10
O=C(NCc1ccc(F)cc1-n1cncn1)c1nc2n(c(=O)c1O)CCOC21CCC1 [Example 51, N-[[4-fluoro-2-(1H-1,2,4-triazol-1-yl)phenyl]methyl]-6′,7′-dihydro-3′-hydroxy-4′-oxo-spiro[cyclobutane-1,9′(4′H)-pyrimido[2,1-c][1,4]oxazine]-2′-carboxamide]		1 to 10
O=C(NCc1ccccc1N1CCOC1=O)c1nc2n(c(=O)c1O)CCOC21CCC1 [Example 126, Spiro[cyclobutane-1,9′(4′H)-pyrimido[2,1-c][1,4]oxazine]-2′-carboxamide, 6′,7′-dihydro-3′-hydroxy-4′-oxo-N-[[2-(2-oxo-3-oxazolidinyl)phenyl]methyl]-]	1 to 10	
CSc1cc(F)ccc1CNC(=O)c1nc2n(c(=O)c1O)CCOC21CCOC1 (stereo not drawn) [Example 39, N-[[4-fluoro-2-(methylthio)phenyl]methyl]-4,5,6′,7′-tetrahydro-3′-hydroxy-4′-oxo-spiro[furan-3(2H),9′(4′H)-pyrimido[2,1-c][1,4]oxazine]-2′-carboxamide]		1 to 10
CS(=O)(=O)c1cc(F)ccc1CNC(=O)c1nc2n(c(=O)c1O)CCCOC21CCC1 [Example 58, N-[[4-fluoro-2-(methylsulfonyl)phenyl]methyl]-7′,8′-dihydro-3′-hydroxy-4′-oxo-spiro[cyclobutane-1,10′(4′H)-[6H]pyrimido[2,1-c][1,4]oxazepine]-2′-carboxamide]		10 to 100
Cc1ccc(CNC(=O)c2nc3n(c(=O)c2O)CCOC32CCCC2)cc1 [Example 19, 6′,7′-dihydro-3′-hydroxy-N-[(4-methylphenyl)methyl]-4′-oxo-spiro[cyclopentane-1,9′(4′H)-pyrimido[2,1-c][1,4]oxazine]-2′-carboxamide]		10 to 100
CN(C)S(=O)(=O)c1cc(F)ccc1CNC(=O)c1nc2n(c(=O)c1O)CCC21CCCC1 [Example 86, N-[[2-[(dimethylamino)sulfonyl]-4-fluorophenyl]methyl]-6′,7′-dihydro-3′-hydroxy-4′-oxo-spiro[cyclopentane-1,8′(4′H)-pyrrolo[1,2-α]pyrimidine]-2′-carboxamide]		10 to 100
CN(C)S(=O)(=O)c1cc(F)ccc1CNC(=O)c1nc2n(c(=O)c1O)CCOC21CCC1 [Example 54, N-[[2-[(dimethylamino)sulfonyl]-4-fluorophenyl]methyl]-6′,7′-dihydro-3′-hydroxy-4′-oxo-spiro[cyclobutane-1,9′(4′H)-pyrimido[2,1-c][1,4]oxazine]-2′-carboxamide]		1 to 10
O=C(NCc1ccc(F)cc1-n1cncn1)c1nc2n(c(=O)c1O)CCOC21CCOC1 (stereo not drawn) [Example 38]		1 to 10
O=C(NCc1ccc(F)cc1)c1nc2n(c(=O)c1O)CCCOC21CCOCC1 [Example 114, Spiro[4H-pyran-4,10′(4′H)-[6H]pyrimido[2,1-c][1,4]oxazepine]-2′-carboxamide, N-[(4-fluorophenyl)methyl]-2,3,5,6,7′,8′-hexahydro-3′-hydroxy-4′-oxo-]	1 to 10	
O=C(NCc1ccc(F)cc1-n1cncn1)c1nc2n(c(=O)c1O)CCC21CCCC1 [Example 87, N-[[4-fluoro-2-(1H-1,2,4-triazol-1-yl)phenyl]methyl]-6′,7′-dihydro-3′-hydroxy-4′-oxo-spiro[cyclopentane-1,8′(4′H)-pyrrolo[1,2-α]pyrimidine]-2′-carboxamide]		1 to 10
Cc1cc(CNC(=O)c2nc3n(c(=O)c2O)CCOC32CCOC2)ccc1F (stereo not drawn) [Example 37, N-[(4-fluoro-3-methylphenyl)methyl]-4,5,6′,7′-tetrahydro-3′-hydroxy-4′-oxo-spiro[furan-3(2H),9′(4′H)-pyrimido[2,1-c][1,4]oxazine]-2′-carboxamide]		1 to 10
Cc1ncn(-c2cc(F)ccc2CNC(=O)c2nc3n(c(=O)c2O)CCOC32CCOCC2)n1 [Example 50, N-[[4-fluoro-2-(3-methyl-1H-1,2,4-triazol-1-yl)phenyl]methyl]-2,3,5,6,6′,7′-hexahydro-3′-hydroxy-4′-oxo-spiro[4H-pyran-4,9′(4′H)-pyrimido[2,1-c][1,4]oxazine]-2′-carboxamide]		1 to 10
O=C(NCc1ccc(F)cc1N1CCCCS1(=O)=O)c1nc2n(c(=O)c1O)CCOC21CCCC1 [Example 34, N-[[4-fluoro-2-(tetrahydro-1,1-dioxido-2H-1,2-thiazin-2-yl)phenyl]methyl]-6′,7′-dihydro-3′-hydroxy-4′-oxo-spiro[cyclopentane-1,9′(4′H)-pyrimido[2,1-c][1,4]oxazine]-2′-carboxamide]		1 to 10
CS(=O)(=O)c1cc(F)ccc1CNC(=O)c1nc2n(c(=O)c1O)CCOC21CCCC1 [Example 89, N-[[4-fluoro-2-(methylsulfonyl)phenyl]methyl]-6′,7′-dihydro-3′-hydroxy-4′-oxo-spiro[cyclopentane-1,9′(4′H)-pyrimido[2,1-c][1,4]oxazine]-2′-carboxamide]		1 to 10
O=C(NCc1ccc(F)cc1N1CCOC1=O)c1nc2n(c(=O)c1O)CCOC21CCC1 [Example 105, Spiro[cyclobutane-1,9′(4′H)-pyrimido[2,1-c][1,4]oxazine]-2′-carboxamide, N-[[4-fluoro-2-(2-oxo-3-oxazolidinyl)phenyl]methyl]-6′,7′-dihydro-3′-hydroxy-4′-oxo-]	1 to 10	
O=C(NCc1ccc(F)cc1N1CCCCS1(=O)=O)c1nc2n(c(=O)c1O)CCCC21CCCC1 [Example 9, N-[[4-fluoro-2-(tetrahydro-1,1-dioxido-2H-1,2-thiazin-2-yl)phenyl]methyl]-7′,8′-dihydro-3′-hydroxy-4′-oxo-spiro[cyclopentane-1,9′(6′H)-[4H]pyrido[1,2-α]pyrimidine]-2′-carboxamide]		1 to 10
O=C(NCc1ccccc1-n1cncn1)c1nc2n(c(=O)c1O)CCCC21CCC1 [Example 80, N-[[2-(1H-1,2,4-triazol-1-yl)phenyl]methyl]-7′,8′-dihydro-3′-hydroxy-4′-oxo-spiro[cyclobutane-1,9′(6′H)-[4H]pyrido[1,2-α]pyrimidine]-2′-carboxamide]		1 to 10
Cc1ncnn1-c1cc(F)ccc1CNC(=O)c1nc2n(c(=O)c1O)CCOC21CCOCC1 [Example 49, N-[[4-fluoro-2-(5-methyl-1H-1,2,4-triazol-1-yl)phenyl]methyl]-2,3,5,6,6′, 7-hexahydro-3′-hydroxy-4′-oxo-spiro[4H-pyran-4,9′(4′H)-pyrimido[2,1-c][1,4]oxazine]-2′-carboxamide]		1 to 10
CS(=O)(=O)c1cc(F)ccc1CNC(=O)c1nc2n(c(=O)c1O)CCCC21CCCC1 [Example 11, N-[[4-fluoro-2-(methylsulfonyl)phenyl]methyl]-7′,8′-dihydro-3′-hydroxy-4′-oxo-spiro[cyclopentane-1,9′(6′H)-[4H]pyrido[1,2-α]pyrimidine]-2′-carboxamide]		1 to 10
Cc1ncn(-c2cc(F)ccc2CNC(=O)c2nc3n(c(=O)c2O)CCCOC32CCC2)n1 [Example 123, Spiro[cyclobutane-1,10′(4′H)-[6H]pyrimido[2,1-c][1,4]oxazepine]-2′-carboxamide, N-[[4-fluoro-2-(3-methyl-1H-1,2,4-triazol-1-yl)phenyl]methyl]-7′,8′-dihydro-3′-hydroxy-4′-oxo-]	1 to 10	
O=C(NCc1ccc(F)cc1-n1ccnn1)c1nc2n(c(=O)c1O)CCOC21CCOCC1 [Example 112, Spiro[4H-pyran-4,9′(4′H)-pyrimido[2,1-c][1,4]oxazine]-2′-carboxamide, N-[[4-fluoro-2-(1H-1,2,3-triazol-1-yl)phenyl]methyl]-2,3,5,6,6′,7′-hexahydro-3′-hydroxy-4′-oxo-]	1 to 10	
O=C(NCc1ccc(Cl)c(Cl)c1)c1nc2n(c(=O)c1O)CCCC21CCC1 [Example 70, N-[(3,4-dichlorophenyl)methyl]-7′,8′-dihydro-3′-hydroxy-4′-oxo-spiro[cyclobutane-1,9′(6′H)-[4H]pyrido[1,2-α]pyrimidine]-2′-carboxamide]		1 to 10
CNC(=O)c1cc(F)ccc1CNC(=O)c1nc2n(c(=O)c1O)CCOC21CCC1 [Example 91, N-[[4-fluoro-2-[(methylamino)carbonyl]phenyl]methyl]-6′,7′-dihydro-3′-hydroxy-4′-oxo-spiro[cyclobutane-1,9′(4′H)-pyrimido[2,1-c][1,4]oxazine]-2′-carboxamide]		1 to 10
